“Also recorded” adds a separate entry of the source.
Assays:
[1] = test system: U4/U6 snRNA construct 79 nt (No. 2, K-turn disrupted) (RNA, junction) GGCCUUAUGCACGGGAAAUACGCAUAUCGUAAGAUUGUGUUUUUGCUGGUGUAAAUCAGCAGUUCCCCUGCAUAAGGCU; test: SPR; conditions: 1x PBS; pH 7.4, 0.005% Tween 20, 5% DMSO; no binding up to 50 μM
[2] = test system: U4/U6 snRNA construct 92 nt (WT, No. 1), Cy5 (RNA, junction) GGCCUUAUGCACGGGAAAUACGCAUAUCAGUGAGGAUUCGUCCGAGAUUGUGUUUUUGCUGGUGUAAAUCAGCAGUUCCCCUGCAUAAGGCU; test: EMSA; conditions: 150 mM NaCl; 20 mM Tris-Cl pH 7.6, 0.1% Triton X-100, 2 mM DTT; 1 μM Snu13 protein displaced
[3] = biological target: U4/U6 snRNA construct (92 nt); test: SPR binding to U4/U6 snRNA construct (92 nt); parameters: species or system yeast; conditions: 92 nt RNA, steady-state fit; >100 = signal appeared at 100 μM but failed to fit
Procedure: (§1) SPR experiments were carried out using an SPR optical biosensor (BIAcore 3000, Cytiva, USA) based on reported methods with minor modifications.[35] To avoid RNA degradation during long-time injections, the whole microfluidic system was washed by priming 50% RNase Zap buffer and RNase-free water one day before the experiments. Then, by using running buffer (1xPBS, pH7.4, 0.005% Tween 20, 5% DMSO) at a flow rate of 5 μL/min, the binding assays were performed. In brief, a CM5 chip surface coated with carboxylated dextran was activated by standard EDC/NHS amine-coupling protocol and then conjugated with streptavidin (200 ng/mL in 10 mM sodium acetate buffer, pH 4.5) for 30 min, resulting in 4000~6000 response units (RUs) signal. After streptavidin conjugation, the surface was deactivated (1 M ethanolamine, pH 8.5) for 10 min and regenerated (10 mM NaOH) for 2 min to remove unbound SA. Then, the folded U4/U6 RNA with biotin-label at 5′ end was prepared (according to the above-mentioned method) at 5 μM and injected in flow-cell (Fc) 2 for 30 min while Fc1 was kept blank as a reference. Then, the system continued flowing the running buffer until the baseline was stable before future steps.
To detect binding between small molecules and U4/U6 snRNA, a 50 μL compound solution was applied to both Fc1 and Fc2 channels simultaneously at a higher flow rate (25 μL/min). The binding curve contains 120 s association and 200 s dissociation. A pulse of 10 mM NaOH injection was used for regeneration if needed. To measure the dissociation constant (KD), titrations of compound solutions with a serial dilution were applied. The KD value was then calculated by fitting the binding curves based on a steady-state model in BIAevaluation 4.0 software and plotted in GraphPad Prism 9.

[4] = test system: U4/U6 79-nt snRNA construct; test: SPR binding test with 79 nt RNA lacking the K-turn; parameters: species or system yeast; conditions: 79 nt RNA that disrupts the 5′ SL; until 50 μM
Procedure: as §1, with “Then, the folded U4/U6 RNA with biotin-label at 5′ end was prepared (according to the above-mentioned method) at 5 μM and injected in flow-cell (Fc) 2 for 30 min while Fc1 was kept blank as a reference. Then, the system continued flowing the running buffer until the baseline was stable before future steps.” left out
To detect binding between small molecules and U4/U6 snRNA, a 50 μL compound solution was applied to both Fc1 and Fc2 channels simultaneously at a higher flow rate (25 μL/min). […] The KD value was then calculated by fitting the binding curves based on a steady-state model in BIAevaluation 4.0 software and plotted in GraphPad Prism 9.

[5] = biological target: U4/U6 92-nt RNA construct; test: MST binding to U4/U6 92-nt RNA; parameters: species or system yeast; conditions: 50 nM Cy5-labeled 92-nt RNA
Procedure: (§2) MST experiments were conducted using a Monolith NT.115 system (NanoTemper, Germany) as described previously.[36] 5′-Cy5-labeled U4/U6 RNA was folded as above-mentioned and diluted to 100 nM (2x) in a working buffer. For RNA-small molecule interactions, compounds were prepared in the running buffer (with 10% DMSO) and mixed with RNA in a 1:1 (v/v) ratio, resulting in 50 nM RNA and 5% DMSO in the final solution. Then, MST scanning was performed in triplicate using a red LED channel to obtain the binding signals. Binding affinity (KD) was determined by fitting the concentration-dependent curve in the T-jump region according to the 1:1 Langmuir binding model (MO.Affinity Analysis v2.3).

[6] = test system: Snu13-U4/U6 RNA interaction; test: KD shift assay by MST (protein-RNA inhibition); format: binding, yeast; conditions: 10 μM compound vs no compound
Procedure: as §2
For the protein-RNA inhibition assay, Snu13 protein was prepared in the running buffer (10 mM HEPES, pH 7.4, 150 mM NaCl, and 0.005% Tween 20) at different concentrations ranging from 0 μM to 5 μM. Meanwhile, a compound at a designated concentration was added to the annealed RNA solution. Then, the test solutions were prepared by 1:1 (v/v) mixing the protein and RNA-small molecule samples, followed by the standard MST procedure mentioned above.

[7] = test system: Snu13-U4/U6 RNA interaction; test: EMSA of Snu13-U4/U6 RNA complex; format: biochemical, yeast; conditions: 1 μM Snu13, compound 0.5 to 20 μM, gel band quantification; read-out: IC50 (RNA-protein complex formation)
Procedure: The 5′-end Cy5 labeled U4U6 RNA in 11.25 mM KPO4 pH 7.0, 310 mM KCl, and 5 mM EDTA was folded based on the above-mentioned method. The folded RNA was incubated with 1 μM Snu13 protein in the buffer containing 20 mM Tris-Cl pH 7.6, 150 mM NaCl, and 0.1% of Triton X-100 and 2 mM DTT for 30 min at room temperature. Then the compound (0.5 μM to 20 μM) was added to the samples and incubated at room temperature for 15 min. The samples were loaded into the 8% native PAGE gel and visualized by AMERSHAM TYPHOON Biomolecular Imager. Image J software was used for image processing. RNA-protein complex formation in the presence of increasing concentration of compound 22 was calculated by quantifying the higher molecular weight band intensity and normalized to the band intensity of RNA-protein complex in the absence of compound. Values reported are the average of three replicates. The half-maximal inhibitory concentration (IC50) was determined by fitting the data in inhibitor dose–response curves in GraphPad Prism 9. Quantitative data were presented as the mean ± SEM.

[8] = test system: U4/U6 snRNA construct 92 nt (WT, No. 1) (RNA, junction) GGCCUUAUGCACGGGAAAUACGCAUAUCAGUGAGGAUUCGUCCGAGAUUGUGUUUUUGCUGGUGUAAAUCAGCAGUUCCCCUGCAUAAGGCU; test: SPR steady state; conditions: 1x PBS; pH 7.4, 0.005% Tween 20, 5% DMSO
[9] = test system: U4/U6 snRNA construct 92 nt (WT, No. 1), Cy5 (RNA, junction) GGCCUUAUGCACGGGAAAUACGCAUAUCAGUGAGGAUUCGUCCGAGAUUGUGUUUUUGCUGGUGUAAAUCAGCAGUUCCCCUGCAUAAGGCU; test: MST (T-jump, 1:1 fit); conditions: running buffer, 5% DMSO, 50 nM RNA
[10] = test system: U4U6 RNA for SHAPE-MaP (T7 transcript of Template) (RNA, junction) GGGCCUUCGGGCCAAGGCCUUAUGCACGGGAAAUACGCAUAUCAGUGAGGAUUCGUCCGAGAUUGUGUUUUUGCUGGUGUAAAUCAGCAGUUCCCCUGCAUAAGGCUUCGAUCCGGUUCGCCGGAUCCAAAUCGGGCUUCGGUCCGGUUC; test: SHAPE-MaP / deltaSHAPE (2A3); conditions: KCl (3.3x folding buffer: 1023 mM); potassium phosphate pH 7.0, EDTA; 100 μM compound
[11] = test system: NHP2L1 (Snu13) and U4 5′ SL; parameters: method as in PMID 28985478; conditions: cited from earlier work

| SMILES | binding [1] | IC50 [2] [µM] | Kd [3] [µM] | SPR binding to 79 nt RNA [4] | Kd [5] [µM] | fold weaker Snu13 affinity [6] [fold] | IC50 [7] [µM] | KD [8] [µM] | KD [9] [µM] | binding [10] | effect on NHP2L1-U4 5′ SL interaction [11] |
| --- | --- | --- | --- | --- | --- | --- | --- | --- | --- | --- | --- |
| CN(C)CCNc1nnc(-c2nc(-c3ccc(F)cc3)no2)c2ccccc12 [Compound 22] | no | 3.2 ± 0.4 | 3.9 ± 2.2 | did not show any binding | 9.1 ± 0.6 | 13 | 3.2 ± 0.4 | 3.9 ± 2.2 | 9.1 ± 0.6 | yes |  |
| CC[C@@]1(O)C(=O)OCc2c1cc1n(c2=O)Cc2cc3c(CN(C)C)c(O)ccc3nc2-1 [topotecan] |  |  |  |  |  |  |  |  |  |  | inhibit the interaction; also recorded: disrupts the binding |

— article doi:10.1101/2025.10.10.681657 (bioRxiv, 2025)
